The results in this text go back to US6358990B1, “Method for treating Alzheimer's disease” (Boehringer Mannheim Pharmaceuticals Corp., priority 1997, dated 2002).

The assay deals with IMR32 human neuroblastoma cells. Put plainly: Inhibition of the formation of toxic aggregates of beta-amyloid 1-40 peptide (MTT reduction in IMR32 cells). Format: cell-based.

Protocol: Determination of the Inhibition of the Formation of Toxic Aggregates of Beta-Amyloid 1-40 Peptide
Beta-amyloid (1-40) peptide from Bachem UK was dissolved in 0.1% acetic acid at 2 mg/ml and further diluted to 55 ug/ml in phosphate buffered saline (Sigma P4417) containing 0.02% Tween 20 (PBS-Tween). Candidate inhibitors were dissolved in DMSO at 10 mg/ml and further diluted in PBS-Tween. For each candidate inhibitor, 45 ul of 55 ug/ml peptide solution was incubated with 5 ul of appropriately diluted inhibitor overnight at 37° C. in Linbro Titertek EIA II shallow well plates (ICN, EIA II Microplates, cat no. 76-181-04). Plates were sealed with Dynatech Labs (cat # 001-010 3501) plate sealers.
MTT (3(4,5-dimethylthiazol-2-yl)-2,5-diphenyl tetrazolium bromide—Sigma) is a metabolic dye taken up by the mitochondria of viable cells and metabolised, yielding a blue formazan crystalline product. […]
For the assessment of toxicity, IMR32 human neuroblastoma cells (ECACC, Porton Down, UK) were plated at 6×10^4 cells/cm^2 in a 96 well microtitre plate (Nunc) in a volume of 100 ul growth medium (DMEM:Hams F12 1:1) per well and incubated for 2 h (CO2 incubator, 37° C.). […] Plates were read at 590 nm and inhibition of toxicity assessed as the difference in OD reading between cells in the presence and absence of candidate inhibitors. […]

In the case of `COc1ccccc1OCCNCC(O)COc1cccc2[nH]c3ccccc3c12` (centres unmarked) [carvedilol], under “50 ug/ml beta-amyloid 1-40 incubated overnight with 50 ug/ml carvedilol, cells challenged with 0 to 10 ng/ml beta-amyloid 1-40”, the “shift of the beta-amyloid 1-40 concentration-response curve (decrease in MTT reduction)” value is “marked shift to the right”. The “decrease in MTT reduction” value (50 ug/ml carvedilol during the aggregation step, 0.1 to 1 ng/ml of peptide on IMR32 cells) is given as “no decrease in MTT reduction was observed”.
